According to patent US10266609B2, “Immunomodulating beta-1,6-D-glucans” (Innate Biotherapeutics, LLC, priority 2014, dated 2019):

These compounds were tested on Anti-β-1,6-Glucan IgG antibodies (affinity purified from IVIG, Baxter) (assay: ELISA: binding of oligosaccharides to anti-β-1,6-glucan antibodies). Conditions: plate coated with oligosaccharide in PBS; 40 ug/mL anti-Beta 1,6 Glucan IgG; anti-human IgG-HRP, TMB, absorbance at 620 nm.
Experimental: Binding of oligosaccharides to anti-β-1,6-glucan antibodies is performed as described in the following protocol.
• 1. […] Anti-β-1,6-Glucan IgG antibodies (affinity purified from IVIG, Baxter) • 6. […] PBS-Tween buffer (PH 7.2, 0.05% Tween 20, Kpl cat #51-12-01) II. Method: Detection of Anti-Beta Glucan IgG by ELISA • 1. Coat plate with oligosaccharides in PBS overnight at 4° C. • 2. Wash 3 times with 250 uL of PBS-Tween • 3. Empty plate • 4. Block plate with 200 uL of Casein for 1 hour at room temperature • 5. Empty plate • 6. Add 40 ug/mL anti-Beta 1,6 Glucan IgG (4 ug/well) in Casein • 7. Incubate for 45 min at room temperature • 8. Wash 3 times with 250 uL of PBS-Tween • 9. Empty plate • 10. Add detection antibody: anti-human IgG-HRP at 1:5000—in casein. Incubate for 45 min at room temperature in the dark • 11. Wash 5 times with 250 uL of PBS-Tween • 12. Empty plate • 13. Add 100 uL of one step ultra TMB • 14. Measure the absorbance at 620 nm every 1 min for 60 min Tables 1-3 provide ELISA assay data for certain glucan compounds.
Also: key: a plus (+) sign indicates that the glucan was active in the assay; a minus (−) sign indicates that the glucan was not active; the '+/−' symbol indicates inconclusive results.

ELISA assay data: glucan active in detection of anti-beta glucan IgG | SMILES
+ | O=C(O)c1cc(OCc2cn(CCO[C@@H]3O[C@H](CO[C@@H]4O[C@H](CO[C@@H]5O[C@H](CO[C@@H]6O[C@H](CO[C@@H]7O[C@H](CO[C@@H]8O[C@H](CO)[C@@H](O)[C@H](O)[C@H]8O)[C@@H](O)[C@H](O)[C@H]7O)[C@@H](O)[C@H](O)[C@H]6O)[C@@H](O)[C@H](O)[C@H]5O)[C@@H](O)[C@H](O)[C@H]4O)[C@@H](O)[C@H](O)[C@H]3O)nn2)cc(OCc2cn(CCO[C@@H]3O[C@H](CO[C@@H]4O[C@H](CO[C@@H]5O[C@H](CO[C@@H]6O[C@H](CO[C@@H]7O[C@H](CO[C@@H]8O[C@H](CO)[C@@H](O)[C@H](O)[C@H]8O)[C@@H](O)[C@H](O)[C@H]7O)[C@@H](O)[C@H](O)[C@H]6O)[C@@H](O)[C@H](O)[C@H]5O)[C@@H](O)[C@H](O)[C@H]4O)[C@@H](O)[C@H](O)[C@H]3O)nn2)c1 [(β-D-glucopyanosy1-1,6)nβ-O(CH2)2-, n=6, 3,5-bis(1[2-[O-β-D-glucopyranosyl-(1→6)]6oxy]ethyl-1H-1,2,3-triazol-4-yl)methoxybenzoic acid]
+ | COC1O[C@H](CO[C@@H]2O[C@H](CO[C@@H]3O[C@H](CO)[C@@H](O)[C@H](O)[C@H]3O)[C@@H](O)[C@H](O)[C@H]2O)[C@@H](O)[C@H](O)[C@H]1O (stereo partly drawn) [OCH3, n=3, methyl [O-β-D-glucopyranosyl-1,6]2-D-glucopyranoside]
+ | COC1O[C@H](CO[C@@H]2O[C@H](CO[C@@H]3O[C@H](CO[C@@H]4O[C@H](CO)[C@@H](O)[C@H](O)[C@H]4O)[C@@H](O)[C@H](O)[C@H]3O)[C@@H](O)[C@H](O)[C@H]2O)[C@@H](O)[C@H](O)[C@H]1O (stereo partly drawn) [OCH3, n=4, methyl [O-β-D-glucopyranosyl-1,6]3-D-glucopyranoside]
+ | COC1O[C@H](CO[C@@H]2O[C@H](CO[C@@H]3O[C@H](CO[C@@H]4O[C@H](CO[C@@H]5O[C@H](CO)[C@@H](O)[C@H](O)[C@H]5O)[C@@H](O)[C@H](O)[C@H]4O)[C@@H](O)[C@H](O)[C@H]3O)[C@@H](O)[C@H](O)[C@H]2O)[C@@H](O)[C@H](O)[C@H]1O (stereo partly drawn) [OCH3, n=5, methyl [O-β-D-glucopyranosyl-1,6-]4-D-glucopyranoside]
+ | CO[C@H]1O[C@H](CO[C@@H]2O[C@H](CO[C@@H]3O[C@H](CO[C@@H]4O[C@H](CO[C@@H]5O[C@H](CO[C@@H]6O[C@H](CO)[C@@H](O)[C@H](O)[C@H]6O)[C@@H](O)[C@H](O)[C@H]5O)[C@@H](O)[C@H](O)[C@H]4O)[C@@H](O)[C@H](O)[C@H]3O)[C@@H](O)[C@H](O)[C@H]2O)[C@@H](O)[C@H](O)[C@H]1O [OCH3, n=6, methyl [O-β-D-glucopyranosyl-1,6]5-D-glucopyranoside]
+ | COC1O[C@H](CO[C@@H]2O[C@H](CO[C@@H]3O[C@H](CO[C@@H]4O[C@H](CO[C@@H]5O[C@H](CO[C@@H]6O[C@H](CO[C@@H]7O[C@H](CO)[C@@H](O)[C@H](O)[C@H]7O)[C@@H](O)[C@H](O)[C@H]6O)[C@@H](O)[C@H](O)[C@H]5O)[C@@H](O)[C@H](O)[C@H]4O)[C@@H](O)[C@H](O)[C@H]3O)[C@@H](O)[C@H](O)[C@H]2O)[C@@H](O)[C@H](O)[C@H]1O (stereo partly drawn) [OCH3, n=7, methyl [O-β-D-glucopyranosyl-1,6]6-D-glucopyranoside]
+ | COC1O[C@H](CO[C@@H]2O[C@H](CO[C@@H]3O[C@H](CO[C@@H]4O[C@H](CO[C@@H]5O[C@H](CO[C@@H]6O[C@H](CO[C@@H]7O[C@H](CO[C@@H]8O[C@H](CO)[C@@H](O)[C@H](O)[C@H]8O)[C@@H](O)[C@H](O)[C@H]7O)[C@@H](O)[C@H](O)[C@H]6O)[C@@H](O)[C@H](O)[C@H]5O)[C@@H](O)[C@H](O)[C@H]4O)[C@@H](O)[C@H](O)[C@H]3O)[C@@H](O)[C@H](O)[C@H]2O)[C@@H](O)[C@H](O)[C@H]1O (stereo partly drawn) [OCH3, n=8, methyl [O-β-D-glucopyranosyl-1,6]7-D-glucopyranoside]
+ | COC1O[C@H](CO[C@@H]2O[C@H](CO[C@@H]3O[C@H](CO[C@@H]4O[C@H](CO[C@@H]5O[C@H](CO[C@@H]6O[C@H](CO[C@@H]7O[C@H](CO[C@@H]8O[C@H](CO[C@@H]9O[C@H](CO)[C@@H](O)[C@H](O)[C@H]9O)[C@@H](O)[C@H](O)[C@H]8O)[C@@H](O)[C@H](O)[C@H]7O)[C@@H](O)[C@H](O)[C@H]6O)[C@@H](O)[C@H](O)[C@H]5O)[C@@H](O)[C@H](O)[C@H]4O)[C@@H](O)[C@H](O)[C@H]3O)[C@@H](O)[C@H](O)[C@H]2O)[C@@H](O)[C@H](O)[C@H]1O (stereo partly drawn) [OCH3, n=9, methyl [O-β-D-glucopyranosyl-1,6]8-D-glucopyranoside]
+ | COC1O[C@H](CO[C@@H]2O[C@H](CO[C@@H]3O[C@H](CO[C@@H]4O[C@H](CO[C@@H]5O[C@H](CO[C@@H]6O[C@H](CO[C@@H]7O[C@H](CO[C@@H]8O[C@H](CO[C@@H]9O[C@H](CO[C@@H]%10O[C@H](CO)[C@@H](O)[C@H](O)[C@H]%10O)[C@@H](O)[C@H](O)[C@H]9O)[C@@H](O)[C@H](O)[C@H]8O)[C@@H](O)[C@H](O)[C@H]7O)[C@@H](O)[C@H](O)[C@H]6O)[C@@H](O)[C@H](O)[C@H]5O)[C@@H](O)[C@H](O)[C@H]4O)[C@@H](O)[C@H](O)[C@H]3O)[C@@H](O)[C@H](O)[C@H]2O)[C@@H](O)[C@H](O)[C@H]1O (stereo partly drawn) [OCH3, n=10, methyl [O-β-D-glucopyranosyl-1,6]9-D-glucopyranoside]
+ | COC1O[C@H](CO[C@@H]2O[C@H](CO[C@@H]3O[C@H](CO[C@@H]4O[C@H](CO[C@@H]5O[C@H](CO[C@@H]6O[C@H](CO[C@@H]7O[C@H](CO[C@@H]8O[C@H](CO[C@@H]9O[C@H](CO[C@@H]%10O[C@H](CO[C@@H]%11O[C@H](CO)[C@@H](O)[C@H](O)[C@H]%11O)[C@@H](O)[C@H](O)[C@H]%10O)[C@@H](O)[C@H](O)[C@H]9O)[C@@H](O)[C@H](O)[C@H]8O)[C@@H](O)[C@H](O)[C@H]7O)[C@@H](O)[C@H](O)[C@H]6O)[C@@H](O)[C@H](O)[C@H]5O)[C@@H](O)[C@H](O)[C@H]4O)[C@@H](O)[C@H](O)[C@H]3O)[C@@H](O)[C@H](O)[C@H]2O)[C@@H](O)[C@H](O)[C@H]1O (stereo partly drawn) [OCH3, n=11, methyl [O-β-D-glucopyranosyl-1,6]10-D-glucopyranoside]
+ | OC[C@H]1O[C@@H](OC[C@H]2OC(O)[C@H](O)[C@@H](O)[C@@H]2O)[C@H](O)[C@@H](O)[C@@H]1O (stereo partly drawn) [OH, n=2]
+ | OC[C@H]1O[C@@H](OC[C@H]2O[C@@H](OC[C@H]3OC(O)[C@H](O)[C@@H](O)[C@@H]3O)[C@H](O)[C@@H](O)[C@@H]2O)[C@H](O)[C@@H](O)[C@@H]1O (stereo partly drawn) [OH, n=3]
+ | OCC1OC(OCC2OC(OCC3OC(OCC4OC(O)C(O)C(O)C4O)C(O)C(O)C3O)C(O)C(O)C2O)C(O)C(O)C1O (stereo not drawn) [OH, n=4]
+ | OCC1OC(OCC2OC(OCC3OC(OCC4OC(OCC5OC(O)C(O)C(O)C5O)C(O)C(O)C4O)C(O)C(O)C3O)C(O)C(O)C2O)C(O)C(O)C1O (stereo not drawn) [OH, n=5]
+ | OCC1OC(OCC2OC(OCC3OC(OCC4OC(OCC5OC(OCC6OC(OCC7OC(OCC8OC(O)C(O)C(O)C8O)C(O)C(O)C7O)C(O)C(O)C6O)C(O)C(O)C5O)C(O)C(O)C4O)C(O)C(O)C3O)C(O)C(O)C2O)C(O)C(O)C1O (stereo not drawn) [OH, n=8]
+ | OCC1OC(OCC2OC(OCC3OC(OCC4OC(OCC5OC(OCC6OC(OCC7OC(OCC8OC(OCC9OC(O)C(O)C(O)C9O)C(O)C(O)C8O)C(O)C(O)C7O)C(O)C(O)C6O)C(O)C(O)C5O)C(O)C(O)C4O)C(O)C(O)C3O)C(O)C(O)C2O)C(O)C(O)C1O (stereo not drawn) [OH, n=9]
+ | OC[C@H]1O[C@@H](OC[C@H]2O[C@@H](OC[C@H]3O[C@@H](OC[C@H]4O[C@@H](OC[C@H]5O[C@@H](OC[C@H]6O[C@@H](OC[C@H]7O[C@@H](OC[C@H]8O[C@@H](OC[C@H]9O[C@@H](OC[C@H]%10OC(O)[C@H](O)[C@@H](O)[C@@H]%10O)[C@H](O)[C@@H](O)[C@@H]9O)[C@H](O)[C@@H](O)[C@@H]8O)[C@H](O)[C@@H](O)[C@@H]7O)[C@H](O)[C@@H](O)[C@@H]6O)[C@H](O)[C@@H](O)[C@@H]5O)[C@H](O)[C@@H](O)[C@@H]4O)[C@H](O)[C@@H](O)[C@@H]3O)[C@H](O)[C@@H](O)[C@@H]2O)[C@H](O)[C@@H](O)[C@@H]1O (stereo partly drawn) [OH, n=10, [O-β-D-glucopyranosyl-1,6-]9-D-glucose]
+ | OC[C@H]1O[C@@H](OC[C@H]2O[C@@H](OC[C@H]3O[C@@H](OC[C@H]4O[C@@H](OC[C@H]5O[C@@H](OC[C@H]6O[C@@H](OC[C@H]7O[C@@H](OC[C@H]8O[C@@H](OC[C@H]9O[C@@H](OC[C@H]%10O[C@@H](OC[C@H]%11OC(O)[C@H](O)[C@@H](O)[C@@H]%11O)[C@H](O)[C@@H](O)[C@@H]%10O)[C@H](O)[C@@H](O)[C@@H]9O)[C@H](O)[C@@H](O)[C@@H]8O)[C@H](O)[C@@H](O)[C@@H]7O)[C@H](O)[C@@H](O)[C@@H]6O)[C@H](O)[C@@H](O)[C@@H]5O)[C@H](O)[C@@H](O)[C@@H]4O)[C@H](O)[C@@H](O)[C@@H]3O)[C@H](O)[C@@H](O)[C@@H]2O)[C@H](O)[C@@H](O)[C@@H]1O (stereo partly drawn) [OH, n=11, [O-β-D-glucopyranosyl-1,6]10-D-glucose]
